For 17 compounds, EC50 and IC50 results are on record in patent US20110306636A1, “OXAZOLE PYRIDINE DERIVATIVES USEFUL AS S1P1 RECEPTOR AGONISTS” (Merck Serono SA, priority 2009, published 2011).

Assay [1] has as its target T1, S1P1 (Homo sapiens, UniProt P21453). Kind of assay: 35S-GTPγS binding assay, S1P1 membranes. The assay is classed as biochemical. The settings on record: membranes from CHO cells expressing S1P1; read-out: S1P1/GTPG EC50. Here is the method:
(§1) Membranes Preparation: Membranes were prepared from CHO cells expressing S1P1 or S1P3 for use in ligand and 35S-GTPγS binding studies. Cells were suspended in 50 mM TRIS, pH 7.4, 2 mM EDTA, 250 mM Sucrose (buffer A) and 1× Complete protease inhibitor cocktail (Roche), and disrupted at 4° C. by N2 decompression using a cell disruption bomb (Parr Instrument). Following centrifugation at 1000 RPM for 10 min at 4° C., the supernatant was diluted (2×) in buffer A and centrifuged again at 19000 RPM for 75 min at 4° C. The pellet was then suspended in 10 mM HEPES, pH 7.4, 1 mM EDTA, 250 mM Sucrose (Buffer B), and 1× Complete EDTA-free protease inhibitor cocktail and homogenized using a potter. Membranes were flash frozen in liquid N2 and stored at −80° C.
Measurements of 35S-GTPγS Binding: Membranes (1 to 10 μg protein) prepared as described above, were incubated in 96-well Scintiplates (PerkinElmer) with test compounds diluted in DMSO, in 140 μl of 20 mM HEPES, pH 7.4, 10 mM MgCl2, 2 μg/well Saponin, 0.2% fatty acid free BSA (Assay buffer), 125 mM NaCl and 1.5 μM GDP. The assay was initiated with the addition of 60 μl of 1.5 nM [35S]-GTPγS (1100 Ci/mmol; GE Healthcare) in assay buffer. After 60 min incubation at 30° C. on a shaker, plates were centrifuged for 10 min at 2000 RPM. Supernatant was discarded and membrane bound radioactivity was measured on a PerkinElmer 1450 MicroBeta counter. Triplicate samples were averaged and expressed as % response relative to S1P activation in absence of compound (n=2).
The “potency” or the “activity” of the compounds is determined by the EC50 values as evaluated in the above described 35S-GTPγS binding assay.

The target in assay [2] is T1, S1P1. The assay can be described thus: Receptor binding assay, [33P]sphingosine 1-phosphate competition, S1P1. Here is the method: as §1
(§2) Receptor binding assay: [33P]sphingosine 1-phosphate (3000 Ci/mmol; American Radiolabeled Chemicals, Inc.) was added to test compounds in 20% DMSO by competition. Membranes and WGA SPA beads (GE Healthcare) were added to give a final volume of 100 μl in 96-well plates or 50 μl in 384-well plates with assay concentrations of 30 pM or 15 pM [33P]sphingosine 1-phosphate (respectively for S1P1 or S1P3), 50 mM HEPES, pH 7.5, 5 mM MgCl2, 100 mM NaCl, 0.4% fatty acid-free BSA, 1-5 μg/well of proteins in 96-well plates vs 0.6-1 μg/well of proteins in 384-well plates and 100 μg/well of WGA SPA beads in 96-well plates vs 75 μg/well of WGA SPA beads in 384-well plates. Binding was performed for 60 min at RT on a shaker and bound radioactivity was measured on a PerkinElmer 1450 MicroBeta counter. Triplicate samples were averaged and normalized as purcentage of inhibition relative to total binding (only DMSO in well) and non specific binding (1000-fold excess of unlabeled S1P). Binding data were analyzed using the GraphPad Prism program or Genedata software.

A further assay deals with S1P3 (Homo sapiens, UniProt Q99500). Kind of assay: Receptor binding assay, [33P]sphingosine 1-phosphate competition, S1P3. Here is the method:
as §1, §2

For assay [3], the target named is T2, human S1P1 Receptor fused to the green fluorescent protein (EGFP) (Homo sapiens, UniProt P21453).
T2 construct: host or cells: U2OS (human bone osteosarcoma epithelial cells), CMV promoter, geneticin selection
T2 sequence (P21453 with tags, fused parts or gaps): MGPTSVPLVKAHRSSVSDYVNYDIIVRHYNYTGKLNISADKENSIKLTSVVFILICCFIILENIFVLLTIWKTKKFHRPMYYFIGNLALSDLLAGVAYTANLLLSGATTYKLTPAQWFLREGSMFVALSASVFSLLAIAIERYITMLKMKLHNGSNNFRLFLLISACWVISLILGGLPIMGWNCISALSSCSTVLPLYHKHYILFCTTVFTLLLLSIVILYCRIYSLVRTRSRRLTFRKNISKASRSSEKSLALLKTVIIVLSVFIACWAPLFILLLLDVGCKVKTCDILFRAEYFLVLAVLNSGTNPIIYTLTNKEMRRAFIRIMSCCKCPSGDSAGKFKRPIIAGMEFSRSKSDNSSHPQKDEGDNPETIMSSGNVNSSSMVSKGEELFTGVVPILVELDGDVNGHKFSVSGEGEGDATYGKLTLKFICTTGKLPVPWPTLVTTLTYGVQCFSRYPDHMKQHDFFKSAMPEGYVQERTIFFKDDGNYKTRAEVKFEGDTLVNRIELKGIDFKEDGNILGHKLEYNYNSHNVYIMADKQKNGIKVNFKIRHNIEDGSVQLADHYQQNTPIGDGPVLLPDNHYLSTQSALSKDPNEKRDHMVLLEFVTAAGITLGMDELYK
Kind of assay: Internalization of S1P1 in S1P1-U2OS cells by cell imaging analysis. The assay is classed as cell-based. The settings on record: 1 hour incubation, 384-well. Here is the method:
Cellular Functional Assays: Internalization of Sphingosine-1-Phosphate Receptor 1 (S1P1) in a Human Cell Line (U2OS) in a 384-Well Format Using a Cell Imaging Analysis.
The S1P1 internalization assay was performed in 384 well plates (Corning® 384 black with clear bottom 3712) using S1P1-U2OS cells from BioImage (C039A), a human epithelial cell line (Human Bone Osteosarcoma Epithelial Cells). These cells expressed the human S1P1 Receptor fused to the green fluorescent protein (EGFP). A standard CMV promoter (cytomegalovirus promoter) controls the expression of S1P1-EGFP and continuous expression was maintained by addition of geneticin to the culture medium.
S1P1 Receptor desensitization induced the internalization of the membrane-localized S1P1-EGFP fusion protein to endosomes, which can be monitored by cell imaging analysis.
The cells are plated in low serum medium (Dulbecco's Modified Eagle Medium (DMEM) with Glutamax-1 and high glucose, 1% Penicillin/Streptomycin, 1% Fetal Calf Serum (FCS), 0.5 mg/ml Geneticin) overnight.
The next day, S1P1-U2OS cells are incubated in 20 μl serum free medium (DMEM with Glutamax-1 and high glucose, 0.1% of fatty-acid free Bovin Serum Albumin (BSA), 10 mM, N′-2-Hydroxyethylpiperazine-N′-2 ethanesulphonic acid (HEPES) 1M) for 2 hours at 37° C./5% CO2.
The cells are then treated with 4 μl compounds/agonists (6×/3% DMSO) for a total volume of 24 μl, and plates are incubated for 1 hour at 37° C./5% CO2.
S1P1-U2OS cells are fixed with 25 μl Paraformaldehyde 8% and stained with Hoechst 33345 dye (1:1000) for 20 minutes.
They were then washed 3 times with Phosphate Buffered Saline (PBS) and plates are sealed.
The internalization of the receptor S1P1-EGFP is measured on Cellomics by calculating the “spot count per object” (“object” corresponds to nuclear and “spot” corresponds to S1P1-EGFP receptor). Internalization data were observed thanks to vHCS View and analyzed using Genedata® software.

Where [4] appears, read: 96 well-plate, read-out: S1P1 binding IC50 (M) (96 well-plate).
The mark [5] stands for this setting: 384 well-plate, read-out: S1P1 binding IC50 (M) (384 well-plate).
Setting [6] is: 96 well-plate, read-out: S1P3 binding IC50 (M) (96 well-plate).
The mark [7] stands for this setting: 384 well-plate, read-out: S1P3 binding IC50 (M) (384 well-plate).

Where a name gives a salt, the structure may show the parent alone. Read-outs that look alike come from different tables or passages of the source.

T1 sequence (P21453 whole entry, species assumed): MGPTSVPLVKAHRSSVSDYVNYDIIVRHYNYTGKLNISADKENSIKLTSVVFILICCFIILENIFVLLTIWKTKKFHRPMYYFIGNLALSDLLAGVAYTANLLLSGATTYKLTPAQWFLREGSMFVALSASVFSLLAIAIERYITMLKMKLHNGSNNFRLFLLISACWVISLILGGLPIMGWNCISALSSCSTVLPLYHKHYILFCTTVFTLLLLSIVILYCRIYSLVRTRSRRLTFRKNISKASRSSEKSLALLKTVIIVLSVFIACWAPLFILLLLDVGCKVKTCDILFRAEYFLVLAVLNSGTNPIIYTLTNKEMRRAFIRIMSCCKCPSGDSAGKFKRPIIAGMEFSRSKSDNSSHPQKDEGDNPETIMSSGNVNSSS
Sequence of S1P3 (Q99500 whole entry, species assumed): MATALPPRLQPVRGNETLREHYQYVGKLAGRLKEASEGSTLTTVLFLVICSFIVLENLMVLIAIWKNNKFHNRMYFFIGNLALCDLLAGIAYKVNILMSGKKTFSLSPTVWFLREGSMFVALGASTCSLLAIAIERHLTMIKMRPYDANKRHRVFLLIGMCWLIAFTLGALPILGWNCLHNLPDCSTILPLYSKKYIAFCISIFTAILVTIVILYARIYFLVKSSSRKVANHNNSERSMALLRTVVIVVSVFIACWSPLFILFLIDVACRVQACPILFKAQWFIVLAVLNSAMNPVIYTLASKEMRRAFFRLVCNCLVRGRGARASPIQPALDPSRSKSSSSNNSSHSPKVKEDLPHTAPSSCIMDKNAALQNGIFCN

On to `COCc1cc(-c2nc(-c3ccc(NCCCC(=O)O)nc3)no2)ccc1-c1ccccc1C` [Example 8, 4-[(5-{5-[2-(methoxymethyl)-2′-methylbiphenyl-4-yl]-1,2,4-oxadiazol-3-yl}pyridin-2-yl)amino]butanoic acid, hydrochloride salt], for which the EC50 on S1P1 [1] came to 9.99 nM.

Regarding `COCc1cc(-c2nc(-c3ccc(NCC(=O)O)nc3)no2)ccc1-c1ccccc1C` [Example 3, N-(5-{5-[2-(methoxymethyl)-2′-methylbiphenyl-4-yl]-1,2,4-oxadiazol-3-yl}pyridin-2-yl)glycine, hydrochloride salt], the EC50 at S1P1 [1] was 131 nM.

Consider `COCc1cc(-c2nc(-c3ccc(C(N)=O)nc3)no2)ccc1-c1ccccc1C` [Example 26, 5-{5-[2-(methoxymethyl)-2′-methylbiphenyl-4-yl]-1,2,4-oxadiazol-3-yl}pyridine-2-carboxamide], for which the EC50 on S1P1 [1] stood at 45.2 nM.

Take `CC1CCCCN1c1ccc(-c2nc(-c3cnc(N)c(Cl)c3)no2)cc1C(F)(F)F` (centres unmarked) [Example 39, 3-chloro-5-{5-[4-(2-methylpiperidin-1-yl)-3-(trifluoromethyl)phenyl]-1,2,4-oxadiazol-3-yl}pyridin-2-amine]: the EC50 at S1P1 [1] was determined as 32.6 nM.

Consider `COCc1cc(-c2nc(-c3ccc(N(C)C)nc3)no2)ccc1-c1ccccc1C` [Example 30, 5-{5-[2-(methoxymethyl)-2′-methylbiphenyl-4-yl]-1,2,4-oxadiazol-3-yl}-N,N-dimethylpyridin-2-amine], for which the EC50 on S1P1 [1] was determined as 688 nM.

In the case of `COCc1cc(-c2nc(-c3cnc(NCCC(=O)OC(C)(C)C)c(Cl)c3)no2)ccc1-c1ccccc1C` [Example 35, tert-butyl N-(3-chloro-5-{5-[2-(methoxymethyl)-2′-methylbiphenyl-4-yl]-1,2,4-oxadiazol-3-yl}pyridin-2-yl)-beta-alaninate], the EC50 on S1P1 [1] stood at 9.45 nM.

As to `COCc1cc(-c2nc(-c3ccc(NC(C)=O)nc3)no2)ccc1-c1ccccc1C` [Example 5, N-(5-{5-[2-(methoxymethyl)-2′-methylbiphenyl-4-yl]-1,2,4-oxadiazol-3-yl}pyridin-2-yl)acetamide, hydrochloride salt], the EC50 at S1P1 [1] worked out at 14.6 nM.

With `CNc1ccc(-c2noc(-c3ccc(-c4ccccc4C)c(COC)c3)n2)cn1` [Example 29, 5-{5-[2-(methoxymethyl)-2′-methylbiphenyl-4-yl]-1,2,4-oxadiazol-3-yl}-N-methylpyridin-2-amine], on S1P1 [1], the EC50 was 43.8 nM.

As to `COCc1cc(-c2nc(-c3ccnc(N(C)C)c3)no2)ccc1-c1ccccc1C` [Example 6, 4-{5-[2-(methoxymethyl)-2′-methylbiphenyl-4-yl]-1,2,4-oxadiazol-3-yl}-N,N-dimethylpyridin-2-amine, hydrochloride salt], the EC50 at S1P1 [1] stood at 145 nM.

As for `COCc1cc(-c2nc(-c3ccnc(NCC(=O)OC(C)(C)C)c3)no2)ccc1-c1ccccc1C` [Example 10, tert-butyl N-(4-{5-[2-(methoxymethyl)-2′-methylbiphenyl-4-yl]-1,2,4-oxadiazol-3-yl}pyridin-2-yl)glycinate], the EC50 on S1P1 [1] amounted to 140 nM.

A word on the IC50: it is the concentration that gives 50% inhibition. For the compound `COCc1cc(-c2nc(-c3cnc(NCCCC(=O)O)c(Cl)c3)no2)ccc1-c1ccccc1C` [Example 56, 4-[(3-chloro-5-{5-[2-(methoxymethyl)-2′-methylbiphenyl-4-yl]-1,2,4-oxadiazol-3-yl}pyridin-2-yl)amino]butanoic acid, hydrochloride salt], the IC50 came to 1.71e-09 M on S1P1 [2] (setting [4]), 4.77e-09 M at S1P1 [2] (setting [5]), 2.09e-06 M on S1P3 (setting [6]) and 1.71e-06 M on S1P3 (setting [7]). In assay [3], this compound yielded an EC50 of 40.3 nM.

Consider `CCOc1cc(-c2nc(-c3cnc(NCCC(=O)O)c(Cl)c3)no2)ccc1-c1ccccc1C` [Example 65, N-{3-chloro-5-[5-(2-ethoxy-2′-methylbiphenyl-4-yl)-1,2,4-oxadiazol-3-yl]pyridin-2-yl}-beta-alanine, hydrochloride salt], for which the concentration for half-maximal inhibition (IC50) is 2.07e-09 M at S1P1 [2] (setting [4]), 7.95e-09 M at S1P1 [2] (setting [5]), 1.6e-06 M at S1P3 (setting [6]) and 2.41e-06 M on S1P3 (setting [7]). This compound returned an EC50 in assay [3] of 16.1 nM.

As to `COCc1cc(-c2nc(-c3cnc(NCCC(=O)O)c(Cl)c3)no2)ccc1-c1cccc(F)c1C` [Example 72, N-(3-chloro-5-{5-[3′-fluoro-2-(methoxymethyl)-2′-methylbiphenyl-4-yl]-1,2,4-oxadiazol-3-yl}pyridin-2-yl)-beta-alanine, hydrochloride salt], the IC50 at S1P1 [2] (setting [5]) came to 8.69e-09 M; on S1P3 (setting [7]), 3.78e-06 M. The compound further registered an EC50 in assay [3] of 23.3 nM.

As for `COCc1cc(-c2nc(-c3ccc(N)nc3)no2)ccc1-c1ccccc1F` [Example 52, 5-{5-[2′-fluoro-2-(methoxymethyl)biphenyl-4-yl]-1,2,4-oxadiazol-3-yl}pyridin-2-amine], the IC50 was found to be 1.65e-09 M on S1P1 [2] (setting [4]), 1.82e-08 M at S1P1 [2] (setting [5]), 3.62e-06 M at S1P3 (setting [6]) and 3.25e-06 M on S1P3 (setting [7]). Also, the EC50 in assay [3] came to 23.1 nM.

`COCc1cc(-c2nc(-c3ccnc(CN(C)CC(=O)O)c3)no2)ccc1-c1ccccc1C` [Example 68, 2-(((4-(5-(2-(methoxymethyl)-2′-methylbiphenyl-4-yl)-1,2,4-oxadiazol-3-yl)pyridin-2-yl)methyl)(methyl)amino)acetic acid]: the half-maximal inhibitory concentration (IC50) is 1.79e-09 M at S1P1 [2] (setting [4]), 1.18e-08 M at S1P1 [2] (setting [5]), 8.55e-07 M on S1P3 (setting [6]) and 1.08e-06 M on S1P3 (setting [7]). The EC50 in assay [3] came to 10.5 nM.

In the case of `COCc1cc(-c2nc(-c3ccc(CN(C)CC(=O)O)nc3)no2)ccc1-c1ccccc1C` [Example 78, 2-(((5-(5-(2-(methoxymethyl)-2′-methylbiphenyl-4-yl)-1,2,4-oxadiazol-3-yl)pyridin-2-yl)methyl)(methyl)amino)acetic acid], the IC50 at S1P1 [2] (setting [4]) is 3.01e-09 M; at S1P1 [2] (setting [5]), 3.5e-09 M; on S1P3 (setting [6]) it was 3.04e-06 M; at S1P3 (setting [7]), 2.48e-06 M. In assay [3], the EC50 amounted to 9.48 nM.

As to `COCc1cc(-c2nc(-c3cnc(NCCCC(=O)O)c(Cl)c3)no2)ccc1-c1ccccc1F` [Example 54, 4-[(3-chloro-5-{5-[2′-fluoro-2-(methoxymethyl)biphenyl-4-yl]-1,2,4-oxadiazol-3-yl}pyridin-2-yl)amino]butanoic acid, hydrochloride salt], the figures for the half-maximal inhibitory concentration (IC50) on S1P1 [2] (setting [4]) and on S1P3 (setting [6]) were 2.01e-09 M and 9.32e-07 M, respectively. This compound displayed an EC50 in assay [3] of 16.4 nM.
